Assay results reported in patent US20110065694A1 (priority 2009, published 2011).
Like-named read-outs stand apart in the source and are kept apart here.

Molecular target: human histamine H3 receptor (Homo sapiens, UniProt Q9Y5N1)
Assay: H3 GTPγS assay (SPA method), histamine H3 in vitro assay
Type: biochemical
Procedure: Briefly, cells expressing the human histamine H3 receptor were homogenized in 15 mM Tris-HCl pH 7.5, 2 mM MgCl2, 0.3 mM EDTA, and 1 mM EGTA. […] Membranes were frozen in liquid nitrogen until use. On the day of the assay, membranes were thawed and diluted in assay buffer (20 mM HEPES pH 7.4, 100 mM NaCl, 10 μg/ml saponin, 1 mM MgCl2) to give 500 μg/ml and mixed (v/v) with GDP in assay buffer for a final GDP concentration of 10 μM and incubated on ice for at least […]. PVT-WGA beads (Amersham, RPNQ001) were diluted in assay buffer at 50 mg/mL and mixed with GTPγ[^35S] (Amersham, SJ1308) diluted in assay buffer to give ˜25,000 dpm/10 μL and mixed vol/vol just before the start of the reaction.
For antagonists testing, 10 μL of a reference agonist ([…]) instead of 10 μL buffer was added at a concentration corresponding to the EC80 (30 nM).
The compounds provided herein were tested in the histamine H3 in vitro assay. In one embodiment, the respective HCl salts of the compounds provided herein were prepared using standard chemical procedures and tested in the histamine H3 in vitro assay.

[1] = membranes of cells expressing human H3, GTPγ[35S] SPA, antagonist testing with reference agonist at EC80 (30 nM), in one embodiment HCl salts tested, read-out: Potency (functional potency as indicated by IC50)

Sequence of human histamine H3 receptor (Q9Y5N1 whole entry): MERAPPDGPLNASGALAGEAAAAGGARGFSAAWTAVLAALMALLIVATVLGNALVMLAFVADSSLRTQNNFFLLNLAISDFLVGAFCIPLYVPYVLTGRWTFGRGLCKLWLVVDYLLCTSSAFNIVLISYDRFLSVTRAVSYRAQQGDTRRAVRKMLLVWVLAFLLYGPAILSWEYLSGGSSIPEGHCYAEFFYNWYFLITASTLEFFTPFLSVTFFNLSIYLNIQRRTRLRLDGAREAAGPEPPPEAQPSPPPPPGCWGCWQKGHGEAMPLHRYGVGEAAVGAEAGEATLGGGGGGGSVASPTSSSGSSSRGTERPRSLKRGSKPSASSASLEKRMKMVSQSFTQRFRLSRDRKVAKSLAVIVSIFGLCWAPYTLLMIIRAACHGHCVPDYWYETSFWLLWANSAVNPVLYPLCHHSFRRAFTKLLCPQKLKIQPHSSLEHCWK

SMILES | IC50 [1] [nM] | IC50 [nM]
N#Cc1ccc(-c2ccc3c(c2)nc2n3CC3CCC(C2)N3C2CCC2)cc1 (single isomer, unassigned) [Compound 44] | < 10 | –
N#Cc1ccc(-c2ccc3c(c2)nc2n3CC3CCC(C2)N3C2CCC2)cc1 (single isomer, unassigned) [Compound 45] | < 1000 | –
N#Cc1ccc(-c2ccc3c(c2)nc2n3CCN3CCCCC3C2)cc1 (single isomer, unassigned) [Compound 46] | < 100 | –
N#Cc1ccc(-c2ccc3c(c2)nc2n3CCN3CCCCC3C2)cc1 (single isomer, unassigned) [Compound 47] | < 10 | –
c1cc2c(cc1CN1CCOCC1)nc1n2CCN2CCCCC2C1 (single isomer, unassigned) [Compound 50] | < 10 | –
c1cc2c(cc1CN1CCOCC1)nc1n2CCN2CCCCC2C1 (single isomer, unassigned) [Compound 51] | < 100 | –
c1cn2cc(-c3ccc4c(c3)nc3n4CCCN4CCCCC4C3)ccc2n1 (single isomer, unassigned) [Compound 70] | < 10 | –
c1cn2cc(-c3ccc4c(c3)nc3n4CCCN4CCCCC4C3)ccc2n1 (single isomer, unassigned) [Compound 71] | < 100 | –
c1cn2cc(-c3ccc4c(c3)nc3n4CCN4CCCC4C3)ccc2n1 (single isomer, unassigned) [Compound 77] | < 10 | –
c1cn2cc(-c3ccc4c(c3)nc3n4CCN4CCCC4C3)ccc2n1 (single isomer, unassigned) [Compound 78] | < 100 | –
c1cn2cc(-c3ccc4c(c3)nc3n4CCCN4CCCC4C3)ccc2n1 (single isomer, unassigned) [Compound 82] | < 10 | –
c1cn2cc(-c3ccc4c(c3)nc3n4CCCN4CCCC4C3)ccc2n1 (single isomer, unassigned) [Compound 83] | < 10 | –
Brc1ccc2c(c1)nc1n2CCN2CCC[C@H]2C1 [Compound 1, (S)-10-bromo-2,3,5,6,13,13a-hexahydro-1H-benzo[4,5]imidazo[1,2-d]pyrrolo[2,1-g][1,4]diazepine] | – | < 1000
N#Cc1ccc(-c2ccc3c(c2)nc2n3CCN3CCC[C@H]3C2)cc1 [Compound 2, (S)-4-(2,3,5,6,13,13a-hexahydro-1H-benzo[4,5]imidazo[1,2-d]pyrrolo[2,1-g][1,4]diazepin-10-yl)benzonitrile] | – | < 100
CC(=O)Nc1ccc(-c2ccc3c(c2)nc2n3CCN3CCC[C@H]3C2)cc1 [Compound 3, (S)-N-(4-(2,3,5,6,13,13a-hexahydro-1H-benzo[4,5]imidazo[1,2-d]pyrrolo[2,1-g][1,4]diazepin-10-yl)phenyl)acetamide] | < 100 | –
c1coc(-c2ccc3c(c2)nc2n3CCN3CCC[C@H]3C2)c1 [Compound 4, (5)-10-(furan-2-yl)-2,3,5,6,13,13a-hexahydro-1H-benzo[4,5]imidazo[1,2-d]pyrrolo[2,1-g][1,4]diazepine] | < 1000 | –
N#Cc1ccc(-c2ccc3c(c2)nc2n3CCN3CCC[C@H]3C2)cn1 [Compound 5, (S)-5-(2,3,5,6,13,13a-hexahydro-1H-benzo[4,5]imidazo[1,2-d]pyrrolo[2,1-g][1,4]diazepin-10-yl)picolinonitrile] | < 100 | –
c1cnc(-c2ccc3c(c2)nc2n3CCN3CCC[C@H]3C2)cn1 [Compound 6, (S)-10-(pyrazin-2-yl)-2,3,5,6,13,13a-hexahydro-1H-benzo[4,5]imidazo[1,2-d]pyrrolo[2,1-g][1,4]diazepine] | > 1000 | –
Brc1ccc2c(c1)nc1n2CCN2CCCCC2C1 (stereo not shown) [Compound 7, 11-bromo-1,2,3,4,6,7,14,14a-octahydrobenzo-[4,5]imidazo[1,2-d]pyrido[2,1-g][1,4]diazepine] | < 100 | –
N#Cc1ccc(-c2ccc3c(c2)nc2n3CCN3CCCCC3C2)cc1 (stereo not shown) [Compound 8, 4-(1,2,3,4,6,7,14,14a-octahydrobenzo[4,5]imidazo-[1,2-d]pyrido[2,1-g][1,4]diazepin-11-yl)benzonitrile] | < 10 | –

SMILES | IC50 [1] [nM] | IC50 [nM]
c1cnc(-c2ccc3c(c2)nc2n3CCN3CCCCC3C2)cn1 (stereo not shown) [Compound 9, 11-(pyrazin-2-yl)-1,2,3,4,6,7,14,14a-octahydrobenzo[4,5]imidazo[1,2-d]pyrido[2,1-g][1,4]diazepine] | < 10 | –
c1cn(-c2ccc3c(c2)nc2n3CCN3CCCCC3C2)cn1 (stereo not shown) [Compound 10, 11-(1H-imidazol-1-yl)-1,2,3,4,6,7,14,14a-octahydrobenzo[4,5]imidazo[1,2-d]pyrido[2,1-g][1,4]diazepine] | < 10 | –
CN1CCN(c2ccc3c(c2)nc2n3CCN3CCCCC3C2)CC1 (stereo not shown) [Compound 11, 11-(4-methylpiperazin-1-yl)-1,2,3,4,6,7,14,14a-octahydrobenzo[4,5]imidazo[1,2-d]pyrido[2,1-g][1,4]diazepine] | < 10 | –
Brc1ccc2c(c1)nc1n2CC2CCCN2CC1 (stereo not shown) [Compound 12, 9-bromo-2,3,5,6,13,13a-hexahydro-1H-benzo[4,5]imidazo[1,2-d]pyrrolo[1,2-a][1,4]diazepine] | – | > 1000
N#Cc1ccc(-c2ccc3c(c2)nc2n3CC3CCCN3CC2)cc1 (stereo not shown) [Compound 13, 4-(2,3,5,6,13,13a-hexahydro-1H-benzo[4,5]imidazo[1,2-d]pyrrolo[1,2-a][1,4]diazepin-9-yl)benzonitrile] | < 1000 | –
c1coc(-c2ccc3c(c2)nc2n3CC3CCCN3CC2)c1 (stereo not shown) [Compound 14, 9-(furan-2-yl)-2,3,5,6,13,13a-hexahydro-1H-benzo[4,5]imidazo[1,2-d]pyrrolo[1,2-a][1,4]diazepine] | > 1000 | –
c1cn2cc(-c3ccc4c(c3)nc3n4CCN4CCCCC4C3)ccc2n1 (stereo not shown) [Compound 15, 11-(imidazo[1,2-a]pyridin-6-yl)-1,2,3,4,6,7,14,14a-octahydrobenzo[4,5]imidazo[1,2-d]pyrido[2,1-g][1,4]diazepine] | < 10 | –
c1ccc2c(c1)ncn2-c1ccc2c(c1)nc1n2CCN2CCCCC2C1 (stereo not shown) [Compound 16, 11-(1H-benzo[d]imidazol-1-yl)-1,2,3,4,6,7,14,14a-octahydrobenzo[4,5]imidazo[1,2-d]pyrido[2,1-g][1,4]diazepine] | < 10 | –
c1cc2c(cc1CN1CCOCC1)nc1n2CCN2CCCCC2C1 (stereo not shown) [Compound 17, 4-((1,2,3,4,6,7,14,14a-octahydrobenzo[4,5]imidazo[1,2-d]pyrido[2,1-g][1,4]diazepin-11-yl)methyl)morpholine] | < 10 | –
Clc1ccc2c(c1)nc1n2CC2CCC(C1)N2C1CCC1 (stereo not shown) [Compound 18, 3-chloro-13-cyclobutyl-6,7,8,9,10,11-hexahydro-7,10-epiminobenzo[4,5]imidazo[1,2-a]azocine] | < 1000 | –
c1coc(-c2ccc3c(c2)nc2n3CC3CCC(C2)N3C2CCC2)c1 (stereo not shown) [Compound 19, 13-cyclobutyl-3-(furan-2-yl)-6,7,8,9,10,11-hexahydro-7,10-epiminobenzo[4,5]imidazo[1,2-a]azocine] | – | < 100
N#Cc1ccc(-c2ccc3c(c2)nc2n3CC3CCC(C2)N3C2CCC2)cc1 (stereo not shown) [Compound 20, 4-(13-cyclobutyl-6,7,8,9,10,11-hexahydro-7,10-epiminobenzo[4,5]imidazo[1,2-a]azocin-3-yl)benzonitrile] | < 10 | –
CC(=O)Nc1ccc(-c2ccc3c(c2)nc2n3CC3CCC(C2)N3C2CCC2)cc1 (stereo not shown) [Compound 21, N-(4-(13-cyclobutyl-6,7,8,9,10,11-hexahydro-7,10-epiminobenzo[4,5]imidazo[1,2-a]azocin-3-yl)phenyl)acetamide] | < 10 | –
c1cc2cc(-c3ccc4c(c3)nc3n4CC4CCC(C3)N4C3CCC3)ccc2[nH]1 (stereo not shown) [Compound 22, 13-cyclobutyl-3-(1H-indol-5-yl)-6,7,8,9,10,11-hexahydro-7,10-epiminobenzo[4,5]imidazo[1,2-a]azocine] | < 100 | –
NCc1ccc(-c2ccc3c(c2)nc2n3CC3CCC(C2)N3C2CCC2)cc1 (stereo not shown) [Compound 23, (4-(13-cyclobutyl-6,7,8,9,10,11-hexahydro-7,10-epiminobenzo[4,5]imidazo[1,2-a]azocin-3-yl)phenyl)-methanamine] | – | < 10
N#Cc1ccc(-c2ccc3c(c2)nc2n3CC3CCC(C2)N3C2CCC2)cc1F (stereo not shown) [Compound 24, 4-(13-cyclobutyl-6,7,8,9,10,11-hexahydro-7,10-epiminobenzo[4,5]imidazo[1,2-a]azocin-3-yl)-2-fluorobenzonitrile] | < 10 | –
Clc1ccc2c(c1)nc1n2C2CCC1CN(C1CCC1)C2 (stereo not shown) [Compound 25, 8-chloro-3-cyclobutyl-2,3,4,5-tetrahydro-1H-1,5-ethanobenzo[4,5]imidazo[1,2-d][1,4]diazepine] | < 1000 | –
N#Cc1ccc(-c2ccc3c(c2)nc2n3C3CCC2CN(C2CCC2)C3)cc1 (stereo not shown) [Compound 26, 4-(3-cyclobutyl-2,3,4,5-tetrahydro-1H-1,5-ethanobenzo[4,5]imidazo[1,2-d][1,4]diazepin-8-yl)benzonitrile] | – | < 100
CC(=O)Nc1ccc(-c2ccc3c(c2)nc2n3C3CCC2CN(C2CCC2)C3)cc1 (stereo not shown) [Compound 27, N-(4-(3-cyclobutyl-2,3,4,5-tetrahydro-1H-1,5-ethanobenzo[4,5]imidazo[1,2-d][1,4]diazepin-8-yl)phenyl)acetamide] | < 100 | –
c1cc2cc(-c3ccc4c(c3)nc3n4C4CCC3CN(C3CCC3)C4)ccc2[nH]1 (stereo not shown) [Compound 28, 3-cyclobutyl-8-(1H-indol-5-yl)-2,3,4,5-tetrahydro-1H-1,5-ethanobenzo[4,5]imidazo[1,2-d][1,4]diazepine] | > 1000 | –
